Where a name gives a salt, the structure may show the parent alone.
Key:
insulin promoter [1] = assay: Insulin promoter/reporter screen in the presence of a fatty acid (reversal of palmitate-induced lipotoxicity); type: cell-based, human; conditions: screen in presence of fatty acid (FIG. 20) vs not in presence (FIG. 19)
Excerpt: The assays employ a cell line derived from human fetal islet cells (T6PNE) in which the cells are infected with a promoter/reporter construct. The construct is shown in FIG. 7 and incorporates an insulin promoter operably linked to an eGFP. Cells were infected and plated, and candidate libraries screened and “hit” detected as discussed in Example 1.
To differentiate between agents that specifically act to reverse lipotoxicity as compared to generally increasing transcription of insulin a two layer screening approach was utilized. In the first layer, islet cells infected with an insulin promoter/reporter construct are screened in the absence of a fatty acid. A “hit” indicates an agent that is capable of increasing insulin transcription. In the second layer, islet cells infected with an insulin promoter/reporter construct are screened in the presence of a fatty acid. A “hit” indicates a drug that reverses the effects of the fatty acid addition, for example reduction of insulin transcription. This drugs screened in both layers may be used to identify whether the drug is specific to lipotoxicity reversal. For example, drugs that are “hits” in the second layer screen but not in the first layer screen are specific to lipotoxicity reversal.

insulin promoter [2] = assay: HTS insulin promoter/eGFP reporter screen in T6PNE cells (absence of fatty acid); type: cell-based, human; conditions: for activator of insulin promoter confirmed in confirmatory screen: repeat of initial screen with dose response, T6PNE cells, insulin promoter-eGFP
Description: A library of 1000 candidate drug compounds was initially screened using NEPCs cultured in a 384-well HTS format using the following method. NEPCs were infected with promoter/reporter constructs in suspension for 6 hours. The cells were then directly plated on Collagen I coated 384-well microtiter plates in media containing 10% plasma. Monolayer formation was allowed to progress by culture for 4 days with regular media changes. Library compounds were then contacted with the cells and added at a final concentration of 5 μM and incubated for 48 hours. Image analysis was then performed using fluorescent microscopy using DAPI […] and imaging of GFP to determine promoter activation activity of individual compounds. Image analysis algorithms are further refined to eliminate auto-fluorescent debris to accurately quantify green fluorescence. The assays employ a cell line derived from human fetal islet cells ([…]) in which the cells are infected with a promoter/reporter construct. The construct is shown in FIG. 7 and incorporates an insulin promoter operably linked to an eGFP. Cells were infected and plated, and candidate libraries screened and “hit” detected as discussed in Example 1. To differentiate between agents that specifically act to reverse lipotoxicity as compared to generally increasing transcription of insulin a two layer screening approach was utilized. In the first layer, islet cells infected with an insulin promoter/reporter construct are screened in the absence of a fatty acid. A “hit” indicates an agent that is capable of increasing insulin transcription. In the second layer, islet cells infected with an insulin promoter/reporter construct are screened in the presence of a fatty acid. A “hit” indicates a drug that reverses the effects of the fatty acid addition, for example reduction of insulin transcription. This drugs screened in both layers may be used to identify whether the drug is specific to lipotoxicity reversal. For example, drugs that are “hits” in the second layer screen but not in the first layer screen are specific to lipotoxicity reversal. […]

| SMILES | reversal of palmitate-induced lipotoxicity (insulin promoter [1]) | other results |
| --- | --- | --- |
| CC(=O)Oc1c(C)c(C)c2c(c1C)CCC(C)(CCC[C@H](C)CCC[C@H](C)CCCC(C)C)O2 (stereo partly drawn) [alpha-tocopheryl acetate] | expected to reverse lipotoxicity | – |
| NCCc1ccc(O)c(O)c1 [dopamine] | – | upregulation of the insulin promoter (insulin promoter [2]; ChemBridge DiverSet library screen as in Example 2): upregulated the insulin promoter |
| Cc1cccc(Nc2ccccc2C(=O)O)c1C [mefenamic acid] | expected to reverse lipotoxicity | – |
| Clc1ccc(C(OCCN2CCCCC2)c2ccccc2)cc1 (stereo not drawn) [cloperastine hydrochloride] | expected to reverse lipotoxicity | – |
| CN(C)CCCN1c2ccccc2Sc2ccc(Cl)cc21 [chlorpromazine] | – | activator of insulin promoter confirmed in confirmatory screen (insulin promoter [2]): confirmed |
| CCN(CC)C(C)CN1c2ccccc2Sc2ccccc21 (stereo not drawn) [ethopropazine] | – | activator of insulin promoter confirmed in confirmatory screen (insulin promoter [2]): confirmed |
| CC1=C(/C=C/C(C)=C/C=C/C(C)=C/C=C/C=C(C)/C=C/C=C(C)/C=C/C2=C(C)CCCC2(C)C)C(C)(C)CCC1 [beta-carotene] | expected to reverse lipotoxicity | – |
| CC(Cc1cccc(C(F)(F)F)c1)NCCOC(=O)c1ccccc1 (stereo not drawn) [benfluorex hydrochloride] | expected to reverse lipotoxicity | – |
| CC[C@H](C)C(=O)O[C@H]1C[C@@H](C)C=C2C=C[C@H](C)[C@H](CC[C@@H]3C[C@@H](O)CC(=O)O3)[C@H]21 [lovastatin] | expected to reverse lipotoxicity | – |
